Experiment in all cases: radiometric GDP[…]mannose transfer, membrane fraction, organic-phase counting
What all share (type): biochemical
Common to all, as to conditions: GDP[14C]mannose co-substrate, 10 mM MgCl2, 0.1% Nonidet P-40, pH 7.4, 30 °C, 5 min; 50 µL assay (amount, not concentration)

Assay [1] addresses T1, TrDPMS-1,3 (T. reesei Dpm1,3 expressed in S. cerevisiae) (Trichoderma reesei, UniProt G0R8U7).
T1 construct: dpm1Tr (p415 GPD LEU) and dpm3Tr (pESC-URA) in S. cerevisiae dpm1dr∆ mutant; yeast membrane fraction; Dpm2 omitted; with Dolichol-phosphate mannosyltransferase subunit 3

Assay [2] deals with T2, TrDPMS (DPMS from T. reesei) (Trichoderma reesei, UniProt G0R8U7).
T2 construct: gene dpm1; native Dpm1/Dpm2/Dpm3 complex in the membrane fraction of T. reesei, not purified; with Dolichol phosphate-mannose biosynthesis regulatory protein; Dolichol-phosphate mannosyltransferase subunit 3
T2 sequence (G0R8U7 1-243): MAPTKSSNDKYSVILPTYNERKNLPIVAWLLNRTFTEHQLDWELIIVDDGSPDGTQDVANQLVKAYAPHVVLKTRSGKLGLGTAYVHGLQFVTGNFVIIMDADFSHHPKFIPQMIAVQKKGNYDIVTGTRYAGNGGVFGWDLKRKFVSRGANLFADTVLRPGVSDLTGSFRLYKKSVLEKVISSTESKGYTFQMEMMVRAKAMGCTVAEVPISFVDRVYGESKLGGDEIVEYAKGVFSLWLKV
T2 sequence (C6KF57 1-92 partner): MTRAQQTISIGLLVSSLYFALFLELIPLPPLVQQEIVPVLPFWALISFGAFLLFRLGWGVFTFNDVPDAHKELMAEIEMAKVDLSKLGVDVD
T2 sequence (C6KF56 1-80 partner): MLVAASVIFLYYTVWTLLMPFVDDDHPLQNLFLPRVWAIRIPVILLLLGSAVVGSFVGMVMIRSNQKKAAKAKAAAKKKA

Assay [3] concerns the target T3, ScDPMS (DPMS from S. cerevisiae) (Saccharomyces cerevisiae, UniProt P14020).
T3 construct: gene DPM1; native enzyme in yeast membrane fraction, not purified; Type I, exclusively Dpm1 subunit
T3 sequence (P14020 2-267): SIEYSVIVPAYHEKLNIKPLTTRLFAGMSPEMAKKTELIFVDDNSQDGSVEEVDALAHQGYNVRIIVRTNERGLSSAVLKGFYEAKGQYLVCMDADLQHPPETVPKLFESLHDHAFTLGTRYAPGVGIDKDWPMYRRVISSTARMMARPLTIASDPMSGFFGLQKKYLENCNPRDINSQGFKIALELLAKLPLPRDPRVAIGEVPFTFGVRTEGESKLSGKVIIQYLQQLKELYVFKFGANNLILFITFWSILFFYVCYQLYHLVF

Consider 1 molecule from PMC6628320, “Poly-Saturated Dolichols from Filamentous Fungi Modulate Activity of Dolichol-Dependent Glycosyltransferase and Physical Properties of Membranes” (International Journal of Molecular Sciences, 2019).

T1 sequence (G0R8U7 entry or part of it): as the sequence (G0R8U7 1-243) above
T1 sequence (C6KF57 entry or part of it, further chain): as the sequence (C6KF57 1-92 partner) above

As for `CC(C)=CCC/C(C)=C/CC/C(C)=C/CC/C(C)=C\CC/C(C)=C\CC/C(C)=C\CC/C(C)=C\CC/C(C)=C\CC/C(C)=C\CC/C(C)=C\CCC(C)CCOP(=O)(O)O` (stereo not drawn) [Dol-P11], the “S. cerevisiae / Km” value in assay [1] and in assay [3] was 730 ng in each case. Also, the “T. reesei / Km” value in assay [2] worked out at 3500 ng.
